Measured values as given in patent US20050064507A1, “Determining kinase specificity” (priority 2003, published 2005).
Square brackets hold non-standard residues; d marks the D form. Ends that are not written are not given here. pS = N[C@@H](COP(=O)(O)O)C(=O)O

Experiments:
pPKC Ab = pPKC Ab binding to peptides phosphorylated in vitro by PKC-theta; conditions: for pPKC Ab binding to peptide: before/after phosphorylation by PKC-theta
Procedure: Synthetic peptides chosen from those shown in Table 4 were subjected to phosphorylation by PKC-theta, Assay conditions were similar to those described herein, except that the phosphorylation reaction was for 30 minutes at 30° C. and then overnight at 4° C. The reaction mixture was applied to HB avidin-coated plates, the plates washed, and then pPKC Ab binding assayed.

PKC-delta = target: T1, PKC-delta (Homo sapiens, UniProt Q05655); assay: In vitro kinase assay: peptide phosphorylation by PKC-delta; assay type: biochemical; conditions: peptide concentration of 10 nM; percentage of phosphorylation of the best validating peptide substrate
T1 construct: purchased Calbiochem
T1 sequence (Q05655 whole entry): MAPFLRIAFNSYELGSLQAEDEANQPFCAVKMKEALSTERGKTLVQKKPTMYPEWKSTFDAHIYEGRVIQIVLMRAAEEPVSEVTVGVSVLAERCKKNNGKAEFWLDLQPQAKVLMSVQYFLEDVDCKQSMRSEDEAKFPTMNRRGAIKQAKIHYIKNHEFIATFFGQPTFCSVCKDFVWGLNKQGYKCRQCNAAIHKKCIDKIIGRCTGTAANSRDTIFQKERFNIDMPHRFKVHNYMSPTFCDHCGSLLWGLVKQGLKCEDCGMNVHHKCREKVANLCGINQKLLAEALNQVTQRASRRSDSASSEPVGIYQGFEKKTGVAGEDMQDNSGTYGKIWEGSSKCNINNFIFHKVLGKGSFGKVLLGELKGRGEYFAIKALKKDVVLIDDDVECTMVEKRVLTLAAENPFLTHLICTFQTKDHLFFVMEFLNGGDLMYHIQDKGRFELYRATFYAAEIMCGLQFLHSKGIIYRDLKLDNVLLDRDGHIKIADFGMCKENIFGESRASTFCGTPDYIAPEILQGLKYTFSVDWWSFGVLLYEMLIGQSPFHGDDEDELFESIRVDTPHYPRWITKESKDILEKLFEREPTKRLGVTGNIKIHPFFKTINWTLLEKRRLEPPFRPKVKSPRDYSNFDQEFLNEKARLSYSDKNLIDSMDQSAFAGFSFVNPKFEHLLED
From the text: One approach to validating a substrate identification method can involve, for example, comparison of substrate sites predicted by the method with in vitro phosphorylation results obtained using the selected kinase and peptides of known sequences. Such a systematic validation has been performed for the methods described herein. For example, a panel of seventy five peptides was synthesized, the phosphorylation observed for each peptide was experimentally measured, the amount of phosphorylation was quantified, the phosphorylation results for each peptide were normalized to the phosphorylation observed with the best substrate tested and these amounts were compared with predictions made according to the invention and according to the procedures provided by others. These peptides are referred to herein as proteomic peptides because their sequences are chosen from proteins in the human proteome; unlike the test sets employed herein, these peptides include no degenerate positions
Table 2 compares the present predictions with actual measurements of phosphorylation on validating peptides. The method of synthesis of the validating peptides was as described elsewhere in the application, and each included an N-terminal linker sequence of biotinylated-Lys-dansylated-Lys-Pro-Pro-Gly (SEQ ID NO:231). The length of the remaining “core” of the validating peptides ranged from 12-21 residues with one to five S/T residues. In vitro phosphorylation of these validating peptides was measured in the manner described herein. […] In vitro phosphorylation results for the validating peptides were expressed as normalized values, namely as a percentage of phosphorylation of the best validating peptide substrate in the group.
(§1) The conditions of the kinase assay and the amount of active kinase used varied with the kinase and with the accuracy needed. For a typical experiment, 5-20 ng of kinase was used per well and each peptide pool was assayed in duplicate wells. Note that the absolute amount of kinase used was not usually a critical parameter, because the desired information related to specificity of the kinase not its absolute activity, and robustness of the assay depends on comparisons of the same amount of kinase on different peptides. The combination of kinase concentration and assay duration was modified to assure that the stoichiometry of peptide phosphorylation never exceeded 5%. The choice of kinase buffer depended on the kinase being analyzed. For studies of PKC, 100 mM HEPES, 0.05% Triton-X100, 1 mM CaCl2, 20 mM MgCl2, 0.2 mg/ml phosphatidyl serine (Avanti Polar Lipids), PMA 100 ng/ml was typically used. The lipid stock was prepared by transferring 3 mg phosphatidyl serine into iced mixture of 450 μl water plus 50 μl of 10% Triton-X100, sonicating 10 times on ice for 1 sec each.
(§2) The kinase reaction mixture was assembled by sequential addition to a tube held on ice of: 5 μl peptide (100 μM for final concentration of 10 μM), 15 μl of kinase (typically 5 ng/well, in appropriate kinase buffer), 30 μl of ATP (1 uCi/well of ^32P-gamma ATP in a stock of 167 μM cold ATP in the kinase buffer; for final concentration for 100 μM ATP). The mixture was rapidly warmed to desired reaction temperature (30° C. for PKC) and incubated for the desired duration (usually 10 minutes). The kinase assay was terminated by transfer to 4° C. water batch, and rapid addition of an equal volume (50 μl) of stop solution [0.1M ATP+0.1M EDTA in water, pH 8].
The peptides were then captured from the reaction mixture by transfer to a Reacti-Bind Streptavidin High Binding Capacity Coated Plates (HBC) (Pierce Biotechnology) as follows. The HBC plates were pre-rinsed three times with PBS/Tween PBS/Tween20 0.05% (PBS/Tween). […]

PKC-theta = target: T2, PKC-theta (Homo sapiens, UniProt Q04759); assay: In vitro kinase assay: peptide phosphorylation by PKC-theta; assay type: biochemical; conditions: Table 8
T2 construct: His-tag; made in house; host or cells: baculovirus-infected Sf9 cells
T2 sequence (Q04759 whole entry): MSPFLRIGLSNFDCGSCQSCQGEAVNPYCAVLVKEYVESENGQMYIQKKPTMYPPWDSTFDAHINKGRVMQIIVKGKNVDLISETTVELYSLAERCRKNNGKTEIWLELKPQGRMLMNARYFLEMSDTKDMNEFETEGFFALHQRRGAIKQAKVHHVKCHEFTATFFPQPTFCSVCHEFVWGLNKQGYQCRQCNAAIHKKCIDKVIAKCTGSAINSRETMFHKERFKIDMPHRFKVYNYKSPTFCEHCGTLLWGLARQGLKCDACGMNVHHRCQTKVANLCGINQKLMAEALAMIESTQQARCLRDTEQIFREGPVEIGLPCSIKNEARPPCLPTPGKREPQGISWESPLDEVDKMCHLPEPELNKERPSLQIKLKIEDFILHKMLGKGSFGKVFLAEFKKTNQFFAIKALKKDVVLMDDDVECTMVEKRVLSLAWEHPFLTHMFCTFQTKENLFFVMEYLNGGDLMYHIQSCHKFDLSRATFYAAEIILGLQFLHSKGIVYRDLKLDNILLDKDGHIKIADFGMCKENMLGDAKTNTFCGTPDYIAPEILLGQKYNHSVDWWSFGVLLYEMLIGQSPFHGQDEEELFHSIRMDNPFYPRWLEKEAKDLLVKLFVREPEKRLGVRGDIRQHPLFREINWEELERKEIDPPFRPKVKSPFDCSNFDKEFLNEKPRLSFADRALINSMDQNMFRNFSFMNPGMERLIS
From the text: A second strategy for validation of the PSSM derived from the methods described herein is to identify sequences represented in the human proteome that have low percentiles derived from the PSSM, to synthesize peptides that have those sequences, and test the efficiency of phosphorylation of those peptides by the kinase of interest. […] The results are shown for individual peptides (FIG. 11, panel A) or for groups of peptides aggregated by percentile prediction (FIG. 11, panel B). As with the testing described above with prospectively chosen peptides, the percentile scores are highly predictive of phosphorylation by the relevant kinase.
An example of the purification procedure used for production of active kinase is as follows. A preparation of PKC-theta was prepared using a Gateway expression construct containing PKC-theta that was expressed in baculovirus, which were used to infect Sf9 cells. The cell pellet from a liter of baculovirus-infected Sf9 cells was resuspended in 20 volumes (60 ml) of extraction buffer (20 mM Na phosphate buffer pH 7.5, 500 mM NaCl, 5 mM pyrophosphate, 10% glycerol, 10 mM imidazole, 1 mM PMSF), sonicated twice for one minute (1 cm tip at 60% power and 50% duty cycle) and cell disruption was verified microscopically. The sample was adjusted to five mM MgCl2 and treated with one U benzonase/ml for an additional 20 minute on ice. The sample was clarified by centrifugation in a JA-20 rotor at 15K for 30 min at 4° C., filtered through a […] filter and applied at 0.5 ml/min to a one ml chelating sepharose column previously charged with nickel and equilibrated with extraction buffer. The column was washed with extraction buffer at one ml/min to baseline and eluted in a 20 ml gradient (20-500 mM imidazole in extraction buffer) into one ml fractions that were analyzed by SDS-PAGE. Fractions with the highest concentration of protein were pooled, were dialyzed twice against one liter of 20 mM Na PO4 pH 7.5, 50 mM NaCl buffer. The kinase pool was dialyzed twice against 20 mM HEPES pH 7.4, 100 mM NaCl, 2 mM EDTA, 5 mM DTT, 0.05% Triton-X-100. After dialysis, the sample was adjusted to 50% glycerol and quick-frozen in a dry ice/ethanol bath.
as §1
as §2, with “8]. […]” for “8].”

pPKC antibody = conditions: cited from earlier work

## 75 (EEAEHKATKARLADK) [compound 75]
pPKC Ab
  pPKC Ab Signal on peptide without exposure to PKC-theta: 0.02
pPKC Ab; 30 minutes at 30° C. then overnight at 4° C.
  pPKC Ab Signal on peptide after exposure to PKC-theta phosphorylation: 0.02
pPKC Ab; difference after minus without exposure
  pPKC Ab Signal amount dependent on PKC phosphorylation: 0.00
PKC-delta
  Measured in vitro phosphorylation by PKC-delta: 0%
PKC-theta
  Peptide phosphorylation by PKC-theta: 0

## 229 (WKN[pS]IRH) [compound 229]
pPKC antibody
  binding of pPKC antibody (manufacturer Cell Signaling Technology): binds

## 230 (RRP[pS]YRK) [compound 230]
pPKC antibody
  binding of pPKC antibody (manufacturer Cell Signaling Technology): binds

## HVRRRRGTFKRSKLRARD [SEQ ID NO 1]
pPKC Ab
  pPKC Ab binding to peptide: after phosphorylation but not before

## LRRRSLRRSNSISKSPGP [SEQ ID NO 121]
pPKC Ab
  pPKC Ab binding to peptide: after phosphorylation but not before
